Measurements: BindingDB's records for patent US11299488 (Bristol-Myers Squibb Company, 2022)

The compounds below were run against Rho-associated protein kinase 2 (Homo sapiens, UniProt O75116) (assay: In Vitro Assay).
Protocol: The effectiveness of compounds of the present invention as ROCK inhibitors can be determined in a 30 μL assay containing 20 mM HEPES, pH 7.5, 20 mM MgCl2, 0.015% Brij-35, 4 mM DTT, 5 μM ATP and 1.5 μM peptide substrate (FITC-AHA-AKRRRLSSLRA-OH) (SEQ ID No. 1). Compounds were dissolved in DMSO so that the final concentration of DMSO was <2%, and the reaction was initiated with Rho kinase variants. After incubation, the reaction was terminated by the addition of EDTA and the phosphorylated and non-phosphorylated peptides separated using a LABCHIP 3000 Reader (Caliper Life Sciences). […] Compounds were tested in dose-response format, and the inhibition of kinase activity was calculated at each concentration of compound. The inhibition data were fit using a curve-fitting program to determine the IC50; i.e., the concentration of compound required to inhibit 50% of kinase activity.

Rho-associated protein kinase 2, sequence (O75116 whole entry): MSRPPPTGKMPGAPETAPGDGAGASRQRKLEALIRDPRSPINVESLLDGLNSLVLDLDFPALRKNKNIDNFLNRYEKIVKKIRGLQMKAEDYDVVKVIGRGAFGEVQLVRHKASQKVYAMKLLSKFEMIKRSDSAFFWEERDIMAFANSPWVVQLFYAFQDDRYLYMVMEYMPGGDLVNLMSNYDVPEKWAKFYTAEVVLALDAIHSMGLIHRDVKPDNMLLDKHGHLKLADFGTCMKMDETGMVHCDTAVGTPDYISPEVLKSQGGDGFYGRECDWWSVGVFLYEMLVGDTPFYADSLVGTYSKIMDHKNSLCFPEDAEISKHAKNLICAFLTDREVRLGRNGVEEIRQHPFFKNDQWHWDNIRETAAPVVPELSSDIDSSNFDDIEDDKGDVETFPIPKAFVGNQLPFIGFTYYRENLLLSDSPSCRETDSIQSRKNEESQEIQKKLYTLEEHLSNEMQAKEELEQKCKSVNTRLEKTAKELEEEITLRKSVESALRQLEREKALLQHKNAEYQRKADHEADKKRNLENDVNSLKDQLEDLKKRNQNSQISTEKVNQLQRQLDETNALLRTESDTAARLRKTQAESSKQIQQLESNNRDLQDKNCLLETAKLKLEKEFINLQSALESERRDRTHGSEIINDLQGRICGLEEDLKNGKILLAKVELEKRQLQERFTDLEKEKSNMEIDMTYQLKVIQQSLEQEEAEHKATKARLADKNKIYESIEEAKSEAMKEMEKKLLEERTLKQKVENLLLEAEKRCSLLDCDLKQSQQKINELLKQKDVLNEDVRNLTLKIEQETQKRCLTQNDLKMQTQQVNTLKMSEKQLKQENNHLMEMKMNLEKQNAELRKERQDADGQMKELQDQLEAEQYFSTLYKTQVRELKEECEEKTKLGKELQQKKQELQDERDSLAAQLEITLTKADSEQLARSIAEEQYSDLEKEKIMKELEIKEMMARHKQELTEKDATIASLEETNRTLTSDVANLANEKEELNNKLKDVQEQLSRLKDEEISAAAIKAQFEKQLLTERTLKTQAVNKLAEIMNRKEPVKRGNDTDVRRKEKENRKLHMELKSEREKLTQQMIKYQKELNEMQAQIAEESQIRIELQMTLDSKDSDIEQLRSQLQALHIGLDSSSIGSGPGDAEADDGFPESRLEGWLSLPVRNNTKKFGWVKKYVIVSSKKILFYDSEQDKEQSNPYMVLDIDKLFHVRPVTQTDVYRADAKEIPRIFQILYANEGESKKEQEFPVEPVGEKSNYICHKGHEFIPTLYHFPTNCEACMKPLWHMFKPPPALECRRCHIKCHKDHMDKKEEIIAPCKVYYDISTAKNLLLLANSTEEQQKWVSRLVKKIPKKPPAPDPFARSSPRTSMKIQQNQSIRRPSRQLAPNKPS

Point of comparison: `COc1cnc(N[C@H]2CC3(C2)C[C@H](Oc2ncccc2C(N)=O)C3)c2cc(Cl)ccc12` (some centres not stated) [US11299488, Example 27], IC50 15 nM. Against it:
- NC(=O)c1cccnc1O[C@H]1CC2(C[C@H](Nc3nc4c(Cl)cccc4s3)C2)C1 (some centres not stated) [US11299488, Example 4] — 5.1-fold higher, 76 nM
- NC(=O)c1cccnc1O[C@H]1CC2(C[C@H](Nc3nc4c(Cl)cc(Cl)cc4s3)C2)C1 (some centres not stated) [US11299488, Example 5] — 7-fold higher, 105 nM
- NC(=O)c1cccnc1O[C@H]1CC2(C[C@H](Nc3nc4c(F)cc(Cl)cc4s3)C2)C1 (some centres not stated) [US11299488, Example 7] — 26-fold higher, 396 nM
- NC(=O)c1cccnc1O[C@H]1CC2(C[C@H](Nc3nc(-c4ccc(Cl)cc4)cs3)C2)C1 (some centres not stated) [US11299488, Example 9] — 220-fold higher, 3300 nM
- NC(=O)c1cccnc1O[C@H]1CC2(C[C@H](Nc3nc(-c4ccccc4Cl)cs3)C2)C1 (some centres not stated) [US11299488, Example 10] — 110-fold higher, 1700 nM
- NC(=O)c1cccnc1O[C@H]1CC2(C[C@H](Nc3nccc(N4CCCC(F)(F)C4)n3)C2)C1 (some centres not stated) [US11299488, Example 36] — 12-fold higher, 175 nM
